Measurements reported in PMC9879403, “Oncolytic strategy using new bifunctional HDACs/BRD4 inhibitors against virus-associated lymphomas” (PLOS Pathogens, 2023).

Columns and labels:
[1] = test system: KSHV; format: cell-based
[2] = test system: BCBL-1 cells; experiment: RNA-Sequencing of compound-treated vs vehicle-treated cells; format: cell-based, human
Experimental: RNA-Sequencing (RNA-Seq) of triplicate samples was performed by BGI Americas Corporation using their unique DNBSEQ sequencing technology. The completed RNA-Sequencing data was submitted to NCBI Sequence Read Archive (SRA# # PRJNA813422). Raw sequencing reads were analyzed using the RSEM software (version 1.3.0; human GRCh38 genome sequence and annotation) and gene expression was quantified as previously described. The EBSeq software was utilized to call differentially expressed genes that were statistically significant using a false discovery rate (FDR) less than 0.05. Differentially expressed genes between compounds- and vehicle-treated PEL cells were used as input for the GO enrichment analyses.

[3] = test system: JSC-1; experiment: WST-1 cytotoxicity assay, JSC-1 (KSHV+ PEL); format: cell-based; conditions: 72 h, read-out: CC50, JSC-1
Text: (§1) Fig 2 Identification of newly synthesized dual inhibitors with anti-PEL activities. (A) The binding mode of (+)-JQ1 with BRD4^BD1 (PDB: 3MXF). BRD4^BD1 is shown as hot pink cartoon with gray surface. Asn140 in BRD4^BD1 is shown as sticks and colored in following pattern: atom C hot pink, atom N dark blue, and atom O yellow. (+)-JQ1 is shown as sticks and colored in following patten: atom C hot pink, atom N dark blue, atom O yellow, atom S golden, and atom Cl green. The solvent exposed region (SEG) of (+)-JQ1 are indicated with white arrow. (B) The binding modes of SAHA and entinostat with HDAC2 (PDB: 3MAX). HDAC2 is shown as blue cartoon with gray surface. Asp181 and His183 in HDAC2 are shown as sticks and colored in following pattern: atom C blue, atom N dark blue, and atom O yellow. The catalytic zinc ion in the active site of HDAC2 is shown as black sphere. SAHA is shown as sticks and colored in following pattern: atom C green, atom N dark blue, and atom O yellow. Entinostat is shown as sticks and colored in following pattern: atom C hot pink, atom N dark blue, and atom O yellow. The SEG of SAHA or entinostat is indicated with white arrow. Hydrogen bonds (H-bonds) are presented by red dash lines. (C) The HDACs/BRD4 dual inhibitors 002-011 were designed by fusing the key pharmacophores of (+)-JQ1 (pink) and HDAC inhibitors (blue), SAHA or entinostat, via various chemical linkers (green). (D) Anti-PEL activities of the new compounds. Five KSHV positive and two KSHV negative lymphoma cell lines were treated with indicated concentrations of these compounds for 72 h. Then the cytotoxicity was determined using the WST-1 assay. (+)-JQ1, SAHA and entinostat were used for the comparisons as single inhibitors. The CC50 for each compound was calculated using GraphPad Prism 5.0 software. Error bars represent S.D. for 3 independent experiments.
(§2) Fig 4 Identification of anti-PEL activities for compound 009 stereoisomers. (A) The chemical structures of anti-HDACs/BRD4 bifunctional molecules 009P1 and 009P2, as well as anti-HDACs or anti-BRD4 mono-functional molecules 009N1, 009N2, 009N3, and 009N4. (B-C) Four KSHV+ PEL cell lines were treated with indicated concentrations of 009P1, 009P2 or 009N1-N4 for 72 h, then the cytotoxicity was determined using the WST-1 assay. (D-I) BCBL-1 cells were treated with these compounds at the respective 2× CC50 for 24 h, then cell cycle (D-F) and apoptosis (G-I) were measured by flow cytometry analysis. Error bars represent S.D. for 3 independent experiments, ** = p<0.01 (vs vehicle control).
(§3) The cell viability following treatment with compounds was assessed by the WST-1 assay (Roche, Indianapolis, Indiana, USA) according to the manufacturer’s protocol as described previously. The absorbance signal was measured using a microplate reader (Biotek Synergy 2). The 50% cytotoxic concentration (CC50) for each compound was calculated from these dose-response curves using the software GraphPad Prism v5.0. Data were normalized as the fold change compared to the DMSO control.

[4] = test system: BCBL-1; experiment: WST-1 cytotoxicity assay, BCBL-1 (KSHV+ PEL); format: cell-based; conditions: BCBL1, 72 h, read-out: CC50, BCBL-1
Text: as §1, §2, §3

[5] = test system: HDACs; experiment: HDACs signaling by Western blot (H3K9Ac, H4K9Ac, Acetyl-tubulin); format: cell-based; conditions: BCBL-1 cells, 48 h, Western blot
[6] = test system: BCP-1; experiment: WST-1 cytotoxicity assay, BCP-1 (KSHV+ PEL); format: cell-based; conditions: BCP-1, 72 h, read-out: CC50, BCP-1
Text: as §1, §2, §3

[7] = test system: KSHV; experiment: Viral DNA levels in PEL cells by qPCR; format: cell-based
[8] = test system: BCBL-1 cells; experiment: PEL xenograft model (BCBL-1 cells i.p.); conditions: 20 mg/kg
Experimental: (A) Plasma concentrations of (+)-JQ1, SAHA, or 009P1 after a single administration of 50 mg per kg body (i.p. injection) were presented as mean ± SD (n = 3 mice per time point). (B-E) NOD/SCID mice were injected i.p. with BCBL-1 cells. 72 h later, the compounds or vehicle were administered i.p. as described in the Methods, and weights were recorded weekly. At the end of the treatment period, the splenic tissues were collected from the vehicle or compound treated mice, compared and processed with the H&E and IHC staining. (F) Plasma concentrations of 009P1 after a single administration of 50 mg per kg body (oral gavage) were presented as mean ± SD (n = 3 mice per time point). (G-I) NOD/SCID mice were injected i.p. with BCBL-1 cells. 72 h later, the compounds or vehicle were administered orally as described in the Methods, and weights were recorded weekly.
In all NOD/SCID mice, 6–8-week-old, male (Jackson Laboratory, Ellsworth, Maine, USA), 1 × 10^7 BCBL-1 cells in 200 μL RMPI-1640 without FBS were injected intraperitoneally and then mice were randomized into treatment groups of 6 mice as described previously. The tested compounds or vehicle was administered initially at 72 h after BCBL-1 injections, and continued once daily, 2 days per week for 3 weeks. Weights were recorded weekly as a surrogate measure of tumor progression. At the end of experiment, the spleens of mice were excised for immunoblots and immunohistochemical analyses.
Formalin-fixed, paraffin-embedded tissues were microtome-sectioned to a thickness of 4 μm and placed on electromagnetically charged slides. Immunohistochemistry was performed as described previously, and the c-Myc and H3K9Ac antibodies were purchased from Abcam. Images were collected using an Olympus BX61 microscope equipped with a high resolution DP72 camera and CellSense image capture software.

[9] = test system: BRD4; experiment: BRD4 signaling by Western blot (c-Myc expression); format: cell-based; conditions: BCBL-1 cells, 48 h, Western blot
[10] = test system: BCBL-1 cells; experiment: Cell death regulatory proteins by Western blot; format: cell-based; conditions: 50 nM, 48 h
[11] = test system: HUVEC; experiment: WST-1 cytotoxicity on primary cells HUVEC; format: cell-based, human
Experimental: as §3
Supplementary file ppat.1011089.s006.tif: S5 Fig Cytotoxicity of tested compounds on HUVEC. The primary cells HUVEC were treated with indicated concentrations of compounds for 72 h, then cell viability was assessed using the WST-1 assay. The CC50 for each compound was calculated from the dose-response curves using Graphpad Prism 5.0 software. Data was normalized as the fold change compared to the DMSO control. (TIF) Click here for additional data file.

[12] = test system: BC-1; experiment: WST-1 cytotoxicity assay, BC-1 (KSHV+ PEL); format: cell-based; conditions: Homo sapiens, BC1, 72 h, read-out: CC50, BC-1
Text: as §1, §2, §3

[13] = gene expression, treated vs vehicle BCBL-1 cells

## Cc1sc2c(c1C)C(c1ccc(Cl)cc1)=N[C@@H](CC(=O)O[C@@H](C)c1ccc(C(=O)Nc3ccccc3N)cc1)c1nnc(C)n1-2 [009P2, (S)-1-(4-((2-aminophenyl)carbamoyl)phenyl)ethyl 2-((S)-4-(4-chlorophenyl)-2,3,9-trimethyl-6H-thieno[3,2-f][1,2,4]triazolo[4,3-a][1,4]diazepin-6-yl)acetate]
[1]
  Expression of viral genes (LANA, RTA, ORF26): significantly increased
[2]; BCBL-1, ≥ 2 fold-change and FDR < 0.05
  Genes differentially expressed between 009P1- and 009P2-treated PEL cells: 715 genes
[2]; [13]
  Ratio, ARC: 17.91
  Ratio, ARRDC3: 41.32
  Ratio, ATF3: 22.98
  Ratio, CCDC169-SOHLH2: 0.1511
  Ratio, CD28: 0.1264
  Ratio, CD44: 0.1695
  Ratio, CFAP58: 0.2474
  Ratio, CHAC1: 9.244
  Ratio, CSF1R: 42.35
  Ratio, DDIT3: 16.53
  Ratio, DDIT4: 24.97
  Ratio, FOS: 77
  Ratio, IFNG: 0.1337
  Ratio, IRF7: 28.87
  Ratio, LGALS9B: 0.03508
  Ratio, MCM5: 0.1
  Ratio, PRKCB: 0.03195
  Ratio, RP11-707M3.3: 0.2332
  Ratio, SOCS3: 41.85
  Ratio, SPINT1: 0.1311
[3]
  CC50: 0.11 µM
[4]
  CC50: 0.0033 µM
[5]
  H3K9Ac, H4K9Ac and Acetyl-tubulin protein levels: increased
[6]
  CC50: 0.028 µM
[7]
  Viral DNA levels: slightly increased
[8]; i.p.
  PEL tumor progression (ascites formation, spleen enlargement): dramatically suppressed PEL tumor progression
  Tumor infiltration into the spleen (H&E): only diffuse small tumor nodules
  Visible toxicity in mice (abnormal weight loss): not observed
[8]; oral administration
  Tumor burden in mice (ascites formation, spleen enlargement): effectively repressed tumor burden
[9]
  c-Myc expression: decreased
[10]
  Expression of p-RB, cleaved-caspase 3 and cleaved-PARP: strongly affected
[11]
  Cytotoxicity in primary cells HUVEC: much less cytotoxicity
[12]
  CC50: 0.0055 µM

## Cc1sc2c(c1C)C(c1ccc(Cl)cc1)=N[C@H](CC(=O)O[C@H](C)c1ccc(C(=O)Nc3ccccc3N)cc1)c1nnc(C)n1-2 [009N1, (R)-1-(4-((2-aminophenyl)carbamoyl)phenyl)ethyl 2-((R)-4-(4-chlorophenyl)-2,3,9-trimethyl-6H-thieno[3,2-f][1,2,4]triazolo[4,3-a][1,4]diazepin-6-yl)acetate]
[3]
  CC50: > 10 µM
[4]
  CC50: 7.56 µM
[5]
  H3K9Ac, H4K9Ac and Acetyl-tubulin protein levels: upregulated
[6]
  CC50: > 10 µM
[9]
  c-Myc expression: subtle effect
[12]
  CC50: > 10 µM

## Cc1sc2c(c1C)C(c1ccc(Cl)cc1)=N[C@H](CC(=O)O[C@@H](C)c1ccc(C(=O)Nc3ccccc3N)cc1)c1nnc(C)n1-2 [009N2, (S)-1-(4-((2-aminophenyl)carbamoyl)phenyl)ethyl 2-((R)-4-(4-chlorophenyl)-2,3,9-trimethyl-6H-thieno[3,2-f][1,2,4]triazolo[4,3-a][1,4]diazepin-6-yl)acetate]
[3]
  CC50: > 10 µM
[4]
  CC50: 1.07 µM
[5]
  H3K9Ac, H4K9Ac and Acetyl-tubulin protein levels: upregulated
[6]
  CC50: 7.68 µM
[9]
  c-Myc expression: subtle effect
[12]
  CC50: 3.12 µM
